Reference: the CheMixHub viscosity set
“And” between values parts separate entries of the source, which are not always exact repeats. Equal entries are not always repeated. ± gives the uncertainty stated by the source.

Row | viscosity (318.15 K, 101 kPa) [mPa·s] | Structure (SMILES) | viscosity (298.15 K, 101 kPa) | viscosity (303.15 K, 101 kPa) | viscosity (308.15 K, 101 kPa) | viscosity (313.15 K, 101 kPa) | further results
1 | 0.6639 ± 0.014 | C=C(C)C(=O)OCCCC | 0.8768 ± 0.019 mPa·s | 0.8077 ± 0.017 mPa·s | 0.7483 ± 0.016 mPa·s | 0.7012 ± 0.015 mPa·s | –
2 | 2.23 ± 0.02 | CC(C)(C)C(=O)O | – | – | – | 2.45 ± 0.03 mPa·s | viscosity (323.15 K, 101 kPa): 2.06 ± 0.02 mPa·s
3 | 227 ± 10 | CC(CC(C)(C)C)CP(=O)([O-])CC(C)CC(C)(C)C.CCCCCCCC[P+](C)(C)C (stereo not drawn) | 804 ± 50 mPa·s | 560 ± 32 mPa·s | 408 ± 21 mPa·s | 306 ± 15 mPa·s | viscosity (323.15 K, 101 kPa): 177 ± 7 mPa·s

More lines, now with the values behind:

Row | Structure (SMILES) | viscosity (318.15 K, 101 kPa) [mPa·s] | viscosity (298.15 K, 101 kPa) | viscosity (303.15 K, 101 kPa) | viscosity (308.15 K, 101 kPa) | viscosity (313.15 K, 101 kPa) | further results
4 | C=CCN=C=S | – | 0.662 ± 0.018 mPa·s | 0.671 ± 0.018 mPa·s | – | – | viscosity (313.15 K, 100 kPa): 0.592 ± 0.005 mPa·s; viscosity (323.15 K, 101 kPa): 0.526 ± 0.014 mPa·s
5 | C=CCc1ccc(O)c(OC)c1 | – | 6.93 ± 0.084 mPa·s | – | – | – | –
6 | CC(=O)[O-].CC[NH2+]CC | – | – | 13.64 ± 0.28 mPa·s and 13.64 ± 0.35 mPa·s | 11.83 ± 0.24 mPa·s and 11.83 ± 0.3 mPa·s | 10.02 ± 0.21 mPa·s | –
7 | CC(C)NC(C)C | – | 0.382 ± 0.06 mPa·s | 0.364 ± 0.06 mPa·s | 0.347 ± 0.06 mPa·s and 0.3089 ± 0.01 mPa·s | – | viscosity (298.15 K, 100 kPa): 0.38 ± 0.02 mPa·s and 0.382 ± 0.012 mPa·s; viscosity (303.15 K, 100 kPa): 0.36 ± 0.02 mPa·s and 0.364 ± 0.011 mPa·s; viscosity (308.15 K, 100 kPa): 0.35 ± 0.02 mPa·s and 0.347 ± 0.011 mPa·s
8 | CCC(=O)c1ccccc1 | 1.377 ± 0.057 | – | 1.51 ± 0.02 mPa·s and 1.515 ± 0.063 mPa·s and 1.622 ± 0.037 mPa·s | – | 1.423 ± 0.059 mPa·s and 1.449 ± 0.033 mPa·s | viscosity (303.15 K, 100 kPa): 1.51 ± 0.02 mPa·s
9 | CCCCCCCCCCCCCCCCCCCc1ccccc1 | – | – | – | – | 8.33 ± 0.07 mPa·s | –
10 | CCCCCCCCCCCO | – | – | – | – | – | viscosity (293.15 K, 101.33 kPa): 16.95 ± 0.39 mPa·s; viscosity (298.15 K, 101.33 kPa): 13.83 ± 0.32 mPa·s
11 | CCCCCCCCCc1ccccc1 | – | – | – | – | – | viscosity (293.15 K, 102 kPa): 3.14 ± 0.03 mPa·s; viscosity (303.15 K, 102 kPa): 2.51 ± 0.03 mPa·s; viscosity (313.15 K, 100 kPa): 2.094 ± 0.043 mPa·s; viscosity (313.15 K, 102 kPa): 2.05 ± 0.03 mPa·s; viscosity (323.15 K, 102 kPa): 1.72 ± 0.03 mPa·s
12 | CCCCCCn1cc[n+](C)c1.[Cl-] | – | – | 4206 ± 320 mPa·s | – | 1718 ± 100 mPa·s | viscosity (293.15 K, 101 kPa): 11420 ± 1000 mPa·s; viscosity (323.15 K, 101 kPa): 1879 ± 600 mPa·s and 783.4 ± 38 mPa·s
13 | CCCC[N+]1(C)CCCC1.N#C[C-](C#N)C#N | 15.44 ± 0.94 | – | – | 20.56 ± 1.2 mPa·s | – | –
14 | CCCC[N+]1(C)CCCCC1.N#C[S-] | 264.5 ± 59 | – | – | – | – | –
15 | CCOC(=O)CC(C)=O | – | – | – | – | – | viscosity (293.15 K, 100 kPa): 1.656 ± 0.1 mPa·s; viscosity (298.15 K, 100 kPa): 1.51 ± 0.091 mPa·s
16 | CCOC(=O)CCBr | – | – | 1.867 ± 0.011 mPa·s | – | – | –
17 | CCOP(=O)([O-])OCC.CC[N+]1(C)CCOCC1 | – | – | – | – | – | viscosity (293.15 K, 100 kPa): 12080 ± 1500 mPa·s; viscosity (298.15 K, 100 kPa): 6680 ± 740 mPa·s; viscosity (303.15 K, 100 kPa): 3786 ± 390 mPa·s; viscosity (308.15 K, 100 kPa): 2325 ± 220 mPa·s; viscosity (313.15 K, 100 kPa): 1466 ± 130 mPa·s; viscosity (318.15 K, 100 kPa): 941.7 ± 80 mPa·s; viscosity (323.15 K, 100 kPa): 634 ± 51 mPa·s
18 | CC[NH3+].O=[N+]([O-])[O-] | 20 | 37.5 ± 1.6 mPa·s and 36.5 mPa·s | 31 mPa·s | 26.5 mPa·s | 22.8 mPa·s | viscosity (293.15 K, 100 kPa): 40.61 ± 0.9 mPa·s; viscosity (293.15 K, 101 kPa): 43.5 mPa·s and 44.9 ± 1.2 mPa·s; viscosity (298 K, 101 kPa): 37.51 ± 1.2 mPa·s; viscosity (298.15 K, 100 kPa): 34.49 ± 0.77 mPa·s; viscosity (303.15 K, 100 kPa): 29.65 ± 0.66 mPa·s; viscosity (308.15 K, 100 kPa): 25.76 ± 0.58 mPa·s; viscosity (313.15 K, 100 kPa): 22.67 ± 0.51 mPa·s; viscosity (318.15 K, 100 kPa): 20.12 ± 0.46 mPa·s; viscosity (323.15 K, 101 kPa): 17.6 mPa·s
19 | CN1CCNCC1 | – | 1.87 ± 0.04 mPa·s | – | – | 1.302 ± 0.028 mPa·s | –
20 | NCc1ccccc1 | – | – | 1.415 ± 0.03 mPa·s | – | – | viscosity (303.15 K, 100 kPa): 1.497 ± 0.035 mPa·s; viscosity (313.15 K, 100 kPa): 1.262 ± 0.03 mPa·s; viscosity (323.15 K, 100 kPa): 1.071 ± 0.025 mPa·s
21 | O=CN1CCOCC1 | – | 7.656 ± 0.15 mPa·s | 6.626 ± 0.18 mPa·s and 6.598 ± 0.13 mPa·s | 5.731 ± 0.16 mPa·s | 5.141 ± 0.14 mPa·s and 5.068 ± 0.11 mPa·s | viscosity (298.15 K, 101.3 kPa): 7.613 ± 0.052 mPa·s; viscosity (323.15 K, 101 kPa): 4.036 ± 0.089 mPa·s
